Experimental data from ChEMBL document CHEMBL3992506, “An in-tether sulfoxide chiral center influences the biophysical properties of the N-capped peptides” (Bioorg Med Chem, 2017).
Numbered stars: 1 amine (or outer) side, 2 acyl side, 3 side chain; on linkers, the order of the positions; unused ones are H or OH. Bridge positions count the residues as written; N and C are the ends. Square brackets hold non-standard residues; d marks the D form. Peptide text beside a SMILES is read from it. * marks the point of attachment. 5FAM = O=C1OC2(c3ccc(O)cc3Oc3cc(O)ccc32)c2ccc(C(=O)*)cc21; X1 = O=C(CN(CC[*:3])[*:1])[*:2]; Mpa = O=C(O)CCS

What was measured:
Estrogen receptor = target: T1, Estrogen receptor (Homo sapiens, UniProt P03372); assay: Binding affinity to recombinant human ER-alpha LBD (301 to 553 residues) expressed in Escherichia coli BL21(DE3) after 1 hr by fluorescence polarization assay
T1 sequence (P03372 whole entry): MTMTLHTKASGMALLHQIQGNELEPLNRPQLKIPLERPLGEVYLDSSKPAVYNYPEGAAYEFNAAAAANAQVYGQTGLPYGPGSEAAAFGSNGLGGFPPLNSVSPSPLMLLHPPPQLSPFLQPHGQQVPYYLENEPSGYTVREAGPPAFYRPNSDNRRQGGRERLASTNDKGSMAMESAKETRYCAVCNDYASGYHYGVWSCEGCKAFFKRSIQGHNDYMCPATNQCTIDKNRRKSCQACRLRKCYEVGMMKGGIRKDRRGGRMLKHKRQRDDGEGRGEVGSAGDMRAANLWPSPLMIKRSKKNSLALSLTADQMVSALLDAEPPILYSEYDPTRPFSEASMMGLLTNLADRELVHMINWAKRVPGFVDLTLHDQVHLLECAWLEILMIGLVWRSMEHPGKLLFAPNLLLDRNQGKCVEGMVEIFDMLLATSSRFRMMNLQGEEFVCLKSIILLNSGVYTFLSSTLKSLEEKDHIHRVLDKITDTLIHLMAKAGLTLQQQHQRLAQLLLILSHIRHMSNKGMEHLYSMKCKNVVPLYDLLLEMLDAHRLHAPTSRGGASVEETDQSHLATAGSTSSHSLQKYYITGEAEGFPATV

[1] = Stability assessed as trypsin (unknown origin)-mediated compound hydrolysis by measuring compound half life at 250 uM at 37 degC by LC-MS/MS method; assay type: ADME; details: human
[2] = Drug uptake in HEK293T cells at 10 uM after 4 hrs by flow cytometry; assay type: ADME, cell-based; details: human, hek-293t
[3] = Drug uptake in cytoplasm of HEK293T cells at 10 uM after 16 hrs by DAPI staining based confocal microscopic method; assay type: ADME, cell-based; details: human

SMILES	Kd (Estrogen receptor) [nM]	t1/2 [1] [min]	also measured
CC[C@H](C)[C@H](NC(=O)CN1CC[S+]([O-])CCC(=O)N[C@@H](CCCNC(=N)N)C(=O)N[C@@H](CCCCNC(=O)c2ccc3c(c2)C(=O)OC32c3ccc(O)cc3Oc3cc(O)ccc32)C1=O)C(=O)N[C@@H](CC(C)C)C(=O)N[C@@H](CCCNC(=N)N)C(=O)N[C@@H](CCCNC(=N)N)C(=O)N[C@@H](CC(C)C)C(=O)N[C@@H](CC(C)C)C(=O)N[C@@H](CCC(N)=O)C(=O)NCC(=O)N[C@@H](Cc1c[nH]c2ccccc12)C(N)=O (stereo in doubt; form 1)	183		
CC[C@H](C)[C@H](NC(=O)CN1CC[S+]([O-])CCC(=O)N[C@@H](CCCNC(=N)N)C(=O)N[C@@H](CCCCN)C1=O)C(=O)N[C@@H](CC(C)C)C(=O)N[C@@H](CCCNC(=N)N)C(=O)N[C@@H](CCCNC(=N)N)C(=O)N[C@@H](CC(C)C)C(=O)N[C@@H](CC(C)C)C(=O)N[C@@H](CCC(N)=O)C(=O)NCC(=O)N[C@@H](Cc1c[nH]c2ccccc12)C(N)=O (stereo in doubt)		5.9	
CC[C@H](C)[C@H](NC(=O)CN1CC[S+]([O-])CCC(=O)N[C@@H](CCCNC(=N)N)C(=O)N[C@@H](CCCCN)C1=O)C(=O)N[C@@H](CC(C)C)C(=O)N[C@@H](CCCNC(=N)N)C(=O)N[C@@H](CCCNC(=N)N)C(=O)N[C@@H](CC(C)C)C(=O)N[C@@H](CC(C)C)C(=O)N[C@@H](CCC(N)=O)C(=O)NCC(=O)N[C@@H](Cc1c[nH]c2ccccc12)C(N)=O (single isomer, unassigned; isomer 2)		2.1	

Continued, in another order:

Kd (Estrogen receptor) [nM]	t1/2 [1] [min]	SMILES	also measured
212		CC[C@H](C)[C@H](NC(=O)CN1CCSCCC(=O)N[C@@H](CCCNC(=N)N)C(=O)N[C@@H](CCCCNC(=O)c2ccc3c(c2)C(=O)OC32c3ccc(O)cc3Oc3cc(O)ccc32)C1=O)C(=O)N[C@@H](CC(C)C)C(=O)N[C@@H](CCCNC(=N)N)C(=O)N[C@@H](CCCNC(=N)N)C(=O)N[C@@H](CC(C)C)C(=O)N[C@@H](CC(C)C)C(=O)N[C@@H](CCC(N)=O)C(=O)NCC(=O)N[C@@H](Cc1c[nH]c2ccccc12)C(N)=O ([Mpa]RK(5FAM)[X1]ILRRLLQGW-NH2; thioether 1-4)	
162		CC[C@H](C)[C@H](NC(=O)CNC(=O)[C@H](CCCCNC(=O)c1ccc2c(c1)C(=O)OC21c2ccc(O)cc2Oc2cc(O)ccc21)NC(=O)[C@@H](N)CCCNC(=N)N)C(=O)N[C@@H](CC(C)C)C(=O)N[C@@H](CCCNC(=N)N)C(=O)N[C@@H](CCCNC(=N)N)C(=O)N[C@@H](CC(C)C)C(=O)N[C@@H](CC(C)C)C(=O)N[C@@H](CCC(N)=O)C(=O)NCC(=O)N[C@@H](Cc1c[nH]c2ccccc12)C(=O)O (H-RK(5FAM)GILRRLLQGW-OH)	
386		CC[C@H](C)[C@H](NC(=O)CN1CC[S+]([O-])CCC(=O)N[C@@H](CCCNC(=N)N)C(=O)N[C@@H](CCCCNC(=O)c2ccc3c(c2)C(=O)OC32c3ccc(O)cc3Oc3cc(O)ccc32)C1=O)C(=O)N[C@@H](CC(C)C)C(=O)N[C@@H](CCCNC(=N)N)C(=O)N[C@@H](CCCNC(=N)N)C(=O)N[C@@H](CC(C)C)C(=O)N[C@@H](CC(C)C)C(=O)N[C@@H](CCC(N)=O)C(=O)NCC(=O)N[C@@H](Cc1c[nH]c2ccccc12)C(N)=O (stereo in doubt; form 2)	Drug uptake [2]: Active; Drug uptake [3]: Active
